Patent US20100137161A1, “METHOD OF GENERATING A PLATELET […] FOR AN INDIVIDUAL” (ROYAL COLLEGE OF SURGEONS IN IRELAND, priority 2006, published 2010)

System: platelet rich plasma (PRP)
Experiment: 96 well plate light transmission platelet aggregation assay, dose response to multiple agonists
Format: cell-based
Conditions: for platelet reactivity induced by the agonist (dose response curve): PRP of an inflamed rheumatoid arthritis patient, compared to the normal population (n=50), FIG. 3
Method: Healthy subjects who had not taken any antiplatelet medication in the 14 days prior to the study were recruited. Subjects refrained from intensive exercise and tobacco use for 4 hours prior to early morning phlebotomy. Blood was drawn from the antecubital fossa. The first 5 ml taken was discarded to avoid unwanted platelet activation and the next 27 ml of blood was collected in 3 ml of 3.2% sodium citrate anticoagulant. This blood citrate mixture was then centrifuged at 150 g for 10 min to recover the supernatant platelet rich plasma (PRP). The platelet concentration was measured using a Sysmex KX 21N.
A 96 well black isoplate with clear bottoms was used. Agonists were arranged in rows of Row 1—Arachidonic Acid (AA), Row 2—Collagen, Row 3—ADP, Row 4—Epinephrine, Row 5—Thrombin related activated peptide (TRAP) and Row 6 as a control row containing 4 wells of PRP and 4 wells of Platelet Poor Plasma (PPP). The remaining 6 rows maybe used for additional agonists or specific peptides as required.
Buffer A (6 mM Dextrose, 130 mM NaCl, 9 mM NaHCO3, 10 mM trisodium citrate, 10 mM Tris Base, 3 mM KCl, 0.81 mM KH2PO4, and 0.9 mM MgCl26H2O [pH7.4]) was added to wells 2-8 on each row using a 12 channel pipette. Row 1—10 μl of buffer A was inserted into well 2. Then 20 μl of buffer A was added to each of the wells 3-8 inclusive. Then 50 μl of AA (500 mg/ml stock) was inserted into well 1. 30 μl of AA was removed from well 1 and mixed with buffer A in well 2. 20 μl of the AA/buffer A was removed from well 2 and mixed in well 3. 20 μl is then removed from well 3 and mixed in well 4. This is repeated throughout the row up to and including well 8 with 20 μl left over and discarded. Row 2—Collagen (1.9 mg.ml stock) same process as Row 1. Row 3 & 5 ADP (Row 3) and TRAP (Row 5), wells 2-8 had 20 μl of buffer A placed into each. A quantity of 40 μl of ADP (200 μM stock) was placed into well 1. 20 μl of agonist was removed from well 1 and placed into well 2 where it was then mixed thoroughly with buffer A. This same process was then repeated across the plate with 20 μl left over after well 8. This was then discarded. The same process is repeated for Row 5—TRAP (200 μM stock). […]
The plate is then placed into a Wallac Victor 3 plate reader. The plate is read at time zero (T0) at absorbance 572 nm. […] T3 (3 minutes) read is taken and then shaking recommences until T9 (9 minutes) read. Further reads are taken at T15 (15 minutes) and T18 (18 minutes) with shaking in between each time-point. […]
The data is then normalised from the PPP and PRP absorbance values which represent minimum and maximum aggregation. […]

SMILES: Nc1ncnc2c1ncn2[C@@H]1O[C@H](COP(=O)(O)OP(=O)(O)O)[C@@H](O)[C@H]1O [ADP]
- platelet reactivity induced by the agonist (dose response curve): excessive platelet reactivity

SMILES: CCCCC/C=C\C/C=C\C/C=C\C/C=C\CCCC(=O)O [Arachidonic Acid]
- platelet reactivity induced by the agonist (dose response curve): excessive platelet reactivity

SMILES: CNC[C@H](O)c1ccc(O)c(O)c1 [Epinephrine]
- platelet reactivity induced by the agonist (dose response curve): excessive platelet reactivity

SMILES: CC(=O)Oc1ccccc1C(=O)O [aspirin (soluble), aspirin]
- inhibition of the COX pathway, arachidonic acid dose response curve (same male, visit 2, 4 weeks later, aspirin (soluble) 150 mg with clopidogrel 75 mg once daily, FIG. 7): clearly inhibited
